Laboratory results published in patent US20230406912A1, “HUMANISED ANTIBODIES AGAINST PATHOGENIC FUNGI” (priority 2020, published 2023).

Columns and labels:
[1] = system: C. auris; assay: EUCAST antifungal MIC assay, drug alone and combined with hmAb 2G8; type: cell-based; conditions: drug alone
Protocol: To evaluate the susceptibility of C. auris to caspofungin, amphotericin B and their combination with hmAb 2G8, we followed the EUCAST antifungal MIC method (EUCAST E.DEF. 7.3). Antifungal drugs were purchased from Sigma-Aldrich.
The caspofungin and amphotericin B range concentrations analysed were reported in EUCAST document. Those concentrations were tested alone and in combination with 0.25, 2.5, 25 and 250 μg/ml of humanised antibody.
The plates microdilution and the yeast inoculum were prepared as reported in EUCAST document. The wells with 100 μl of 2X final antifungal drugs concentration in RPMI 2% G medium were inoculated with 100 μl (1-5×10^5 CFU/ml) of yeast suspension of C. auris. The monoclonal antibody was added to the samples of yeast suspension to test the combination drug-antibody. The plates were incubated at 37° C. for 24 and 48 hours and read after incubation at 405 nm. The assays were performed in triplicate.
As reported in EUCAST, echinocandins' MIC50 is the lowest drug concentration giving inhibition of≥50% of that of the drug-free control (dotted line). For amphotericin B, MIC50 is the same as for echinocandins while MIC90 is considered as the lowest concentration giving a growth inhibition of≥90% of that of the drug-free control (dotted bold line). […] At 48 hours (D), amphotericin B alone has its MIC50 and 90 at 1 μg/ml.

[2] = system: C. auris; assay: Time-kill curve, drug alone and combined with hmAb 2G8; type: cell-based
Source text: To support and deepen the data coming from MIC assays, a time-kill curve was elaborated to evaluate how the hmAb 2G8 combined with caspofungin or amphotericin B could improve their basal activity on C. auris.

[3] = system: C. auris; conditions: different C. auris strains, literature; cited from earlier work

MIC50 ([1]; 24 hours): 0.5 µg/mL
MIC90 ([1]; 24 hours): 0.5 µg/mL
MIC50 ([1]; 48 hours): 1 µg/mL
MIC90 ([1]; 48 hours): 1 µg/mL
Structure (SMILES): C[C@@H]1[C@H](O)[C@@H](C)/C=C/C=C/C=C/C=C/C=C/C=C/C=C/[C@H](O[C@@H]2O[C@H](C)[C@@H](O)[C@H](N)[C@@H]2O)C[C@@H]2O[C@](O)(C[C@@H](O)C[C@@H](O)[C@H](O)CC[C@@H](O)C[C@@H](O)CC(=O)O[C@H]1C)C[C@H](O)[C@H]2C(=O)O [amphotericin B]
log growth decrease (time-kill curve) ([2]; AMB 0.03125 μg/ml, 0 h): 0.01 Log
log growth decrease (time-kill curve) ([2]; AMB 0.03125 μg/ml, 2 h): 0.05 Log
log growth decrease (time-kill curve) ([2]; AMB 0.03125 μg/ml, 4 h): −0.19 Log
log growth decrease (time-kill curve) ([2]; AMB 0.03125 μg/ml, 6 h): −0.62 Log
log growth decrease (time-kill curve) ([2]; AMB 0.03125 μg/ml, 8 h): −1.04 Log
log growth decrease (time-kill curve) ([2]; AMB 0.03125 μg/ml, 24 h): −2.65 Log
log growth decrease (time-kill curve) ([2]; AMB 0.03125 μg/ml, 48 h): −2.85 Log
log growth decrease (time-kill curve) ([2]; AMB 0.0625 μg/ml, 0 h): 0.00 Log
log growth decrease (time-kill curve) ([2]; AMB 0.0625 μg/ml, 2 h): 0.07 Log
log growth decrease (time-kill curve) ([2]; AMB 0.0625 μg/ml, 4 h): −0.14 Log
log growth decrease (time-kill curve) ([2]; AMB 0.0625 μg/ml, 6 h): −0.59 Log
log growth decrease (time-kill curve) ([2]; AMB 0.0625 μg/ml, 8 h): −0.97 Log
log growth decrease (time-kill curve) ([2]; AMB 0.0625 μg/ml, 24 h): −2.59 Log
log growth decrease (time-kill curve) ([2]; AMB 0.0625 μg/ml, 48 h): −2.57 Log
log growth decrease (time-kill curve) ([2]; AMB 0.125 μg/ml, 0 h): 0.01 Log
log growth decrease (time-kill curve) ([2]; AMB 0.125 μg/ml, 2 h): 0.11 Log
log growth decrease (time-kill curve) ([2]; AMB 0.125 μg/ml, 4 h): −0.07 Log
log growth decrease (time-kill curve) ([2]; AMB 0.125 μg/ml, 6 h): −0.42 Log
log growth decrease (time-kill curve) ([2]; AMB 0.125 μg/ml, 8 h): −0.80 Log
log growth decrease (time-kill curve) ([2]; AMB 0.125 μg/ml, 24 h): −2.28 Log
log growth decrease (time-kill curve) ([2]; AMB 0.125 μg/ml, 48 h): −2.44 Log
log growth decrease (time-kill curve) ([2]; AMB 0.25 μg/ml, 0 h): 0.07 Log
log growth decrease (time-kill curve) ([2]; AMB 0.25 μg/ml, 2 h): 0.10 Log
log growth decrease (time-kill curve) ([2]; AMB 0.25 μg/ml, 4 h): 0.02 Log
log growth decrease (time-kill curve) ([2]; AMB 0.25 μg/ml, 6 h): −0.02 Log
log growth decrease (time-kill curve) ([2]; AMB 0.25 μg/ml, 8 h): 0.02 Log
log growth decrease (time-kill curve) ([2]; AMB 0.25 μg/ml, 24 h): 0.19 Log
log growth decrease (time-kill curve) ([2]; AMB 0.25 μg/ml, 48 h): −2.13 Log
log growth decrease (time-kill curve) ([2]; AMB 0.5 μg/ml, 0 h): 0.05 Log
log growth decrease (time-kill curve) ([2]; AMB 0.5 μg/ml, 2 h): 0.21 Log
log growth decrease (time-kill curve) ([2]; AMB 0.5 μg/ml, 4 h): 0.41 Log
log growth decrease (time-kill curve) ([2]; AMB 0.5 μg/ml, 6 h): 0.86 Log
log growth decrease (time-kill curve) ([2]; AMB 0.5 μg/ml, 8 h): 1.95 Log
log growth decrease (time-kill curve) ([2]; AMB 0.5 μg/ml, 24 h): ≥3 Log
log growth decrease (time-kill curve) ([2]; AMB 0.5 μg/ml, 48 h): ≥3 Log
log growth decrease (time-kill curve) ([2]; AMB 1 μg/ml, 0 h): 0.05 Log
log growth decrease (time-kill curve) ([2]; AMB 1 μg/ml, 2 h): 1.77 Log
log growth decrease (time-kill curve) ([2]; AMB 1 μg/ml, 4 h): ≥3 Log
log growth decrease (time-kill curve) ([2]; AMB 1 μg/ml, 6 h): ≥3 Log
log growth decrease (time-kill curve) ([2]; AMB 1 μg/ml, 8 h): ≥3 Log
log growth decrease (time-kill curve) ([2]; AMB 1 μg/ml, 24 h): ≥3 Log
log growth decrease (time-kill curve) ([2]; AMB 1 μg/ml, 48 h): ≥3 Log
log growth decrease (time-kill curve) ([2]; AMB 2 μg/ml, 0 h): 0.05 Log
log growth decrease (time-kill curve) ([2]; AMB 2 μg/ml, 2 h): ≥3 Log
log growth decrease (time-kill curve) ([2]; AMB 2 μg/ml, 4 h): ≥3 Log
log growth decrease (time-kill curve) ([2]; AMB 2 μg/ml, 6 h): ≥3 Log
log growth decrease (time-kill curve) ([2]; AMB 2 μg/ml, 8 h): ≥3 Log
log growth decrease (time-kill curve) ([2]; AMB 2 μg/ml, 24 h): ≥3 Log
log growth decrease (time-kill curve) ([2]; AMB 2 μg/ml, 48 h): ≥3 Log
log growth decrease (time-kill curve) ([2]; AMB 4 μg/ml, 0 h): 0.06 Log
log growth decrease (time-kill curve) ([2]; AMB 4 μg/ml, 2 h): ≥3 Log
log growth decrease (time-kill curve) ([2]; AMB 4 μg/ml, 4 h): ≥3 Log
log growth decrease (time-kill curve) ([2]; AMB 4 μg/ml, 6 h): ≥3 Log
log growth decrease (time-kill curve) ([2]; AMB 4 μg/ml, 8 h): ≥3 Log
log growth decrease (time-kill curve) ([2]; AMB 4 μg/ml, 24 h): ≥3 Log
log growth decrease (time-kill curve) ([2]; AMB 4 μg/ml, 48 h): ≥3 Log
time at which fungicidal activity is obtained ([2]; time-kill curve, as efficiency starts decreasing): 24 h
MIC [3]: ≥ 2 µg/mL
